≈ marks a conversion by molar mass, not a printed value. Like-named read-outs stand apart in the source and are kept apart here.
Columns and labels:
Format in all cases: cell-based
[1] = system: visna virus (strain K184); test: CPE inhibition test (established monolayer) for lentiviruses; conditions: Visna-maedi virus, read-out: MIC Visna Virus K184 strain in SCP cells
Protocol: 3 x 10⁴ sheep choroid plexus (SCP) cells were plated into individual wells of a 96 well microtitre plate in 100µl of Eagle's MEM with Hanks' salts containing 10% heat inactivated foetal calf serum (FCS). When monolayers had become established (after 1 or 2 days growth) they were washed with 200µl of maintenance medium (Eagle's MEM with Hanks' salts containing 0.5% FCS) and infected with 100µl of visna virus (strain K184) in maintenance medium (20 TCID₅₀/ml). Test samples were diluted with maintenance medium in further 96 well microtitre plates over the range 200-0.06µg/ml by 3-fold dilution steps. 100µl of the diluted samples was then transferred directly onto virus-infected monolayers (final concentration range therefore 100-0.03µg/ml) and incubated at 37°C in a humidified atmosphere containing, 5% CO₂ until virus-induced CPE was maximal in the untreated virus-infected controls (usually 12-14 days). The plates were fixed with formal saline and stained with crystal violet. Virus-induced CPE was then scored microscopically and the minimum concentration of sample giving complete protection of the cell monolayers (MIC) determined.

[2] = system: varicella zoster virus (VZV; Ellen strain); test: Plaque reduction test for varicella zoster virus
Protocol: MRC-5 cells were grown to confluence in 24 well multi-dishes (well diameter = 1.5cm). The drained cell monolayers were each infected with approximately 50 infectious particles of varicella zoster virus (VZV; Ellen strain) in 100µl of phosphate-buffered saline. The virus was adsorbed for 1 hour at room temperature. After adsorption, residual inoculum was removed from each well and replaced with 0.5ml of Eagles's MEM containing 5% […] foetal calf serum and 0.9% agarose (A37). Once the agarose had set, dilutions of the test compound, which had been prepared in Eagle's MEM (containing 5% heat-inactivated foetal calf serum), were added, each well receiving 0.5ml of liquid overlay. The test compound was diluted to give the following series of concentrations: 200, 60, 20, 6....0.06µg/ml; final concentrations in the assay ranged, therefore, between 100µg/ml and 0.03µg/ml. The infected cultures were incubated at 37°C in a humidified atmosphere of 5% CO₂ until plaques were clearly visible (5 or 6 days).
(§1) Cultures from 1 and 2 were fixed in formol saline, the agarose overlays were carefully washed off, and then the cell monolayers were stained with carbol fuchsin. A stereo microscope was used to count plaques. The IC₅₀ (concentration of drug which inhibits the number of plaques formed by 50% relative to the number of plaques observed in virus control monolayers) of the test compound was calculated. In addition, the monolayers were examined for evidence of drug-induced cytotoxicity; the minimum concentration at which cytotoxicity occurs was recorded.

[3] = system: herpes simplex virus 1 (HSV-1; strain HFEM); test: Plaque reduction test for herpes simplex virus 1; conditions: read-out: IC₅₀ Herpes Simplex virus Type 1 HFEM strain in Vero cells
Protocol: (§2) Cells (Vero or MRC-5) were grown to confluence in 24 well multi-dishes (well diameter = 1.5cm). The drained cell monolayers were each infected with approximately 50 infectious particles of herpes simplex virus 1 (HSV-1; strain HFEM) or herpes simplex virus 2 (HSV-2; strain MS) in 100µl of phosphate-buffered saline. The virus was absorbed for 1 hour at room temperature. After adsorption, residual inoculum was removed from each well and replaced with 0.5ml of Eagle's MEM containing 5% newborn calf serum and 0.9% agarose (A37). Once the agarose had set, dilutions of the test compound, which had been prepared in Eagle's MEM (containing 5% newborn calf serum), were added, each well receiving 0.5ml of liquid overlay. The test compound was diluted to give the following series of concentrations: 200, 60, 20, 6....0.06µg/ml; final concentrations in the assay ranged, therefore, between 100µg/ml and 0.03µg/ml. The infected cultures were incubated at 37°C in a humidified atmosphere of 5% CO₂ until plaques were clearly visible (2 or 3 days for Vero cells, usually […] for MRC-5 cells).
as §1

[4] = system: herpes simplex virus 2 (HSV-2; strain MS); test: Plaque reduction test for herpes simplex virus 2
Protocol: as §2, §1

[5] = Human alphaherpesvirus 3, MRC5, read-out: IC₅₀ Varicella Zoster virus Ellen strain in MRC-5 cells
[6] = Human alphaherpesvirus 2, MRC5, read-out: IC₅₀ Herpes Simplex virus Type 2 MS strain in MRC-5 cells
[7] = minimum concentration giving complete protection of the cell monolayers from virus-induced CPE, sheep choroid plexus (SCP) cells
[8] = Human alphaherpesvirus 3, MRC5, plaque reduction, Ellen strain, MRC-5 cells, read-out: IC₅₀ Varicella Zoster virus Ellen strain in MRC-5 cells
[9] = Human alphaherpesvirus 1, plaque reduction, HFEM strain, Vero cells
[10] = Human alphaherpesvirus 2, MRC5, plaque reduction, MS strain, MRC-5 cells, read-out: IC₅₀ Herpes Simplex virus Type 2 MS strain in MRC-5 cells

| Compound | MIC ([1]; in Ovis aries) | IC50 [2, 5] | IC50 ([3]; Human alphaherpesvirus 1, Vero) | IC50 [4, 6] | MIC [1, 7] | IC50 [2, 8] | IC50 [3, 9] | IC50 [4, 10] |
| --- | --- | --- | --- | --- | --- | --- | --- | --- |
| CCOP(=O)(COCCOn1cnc2c(N)ncnc21)OCC [Example 1, 9-[2-(Diethoxyphosphorylmethoxy)ethoxy]adenine] | 100 µg/mL (≈ 290 µM) | > 100 µg/mL | > 100 µg/mL | > 100 µg/mL | – | – | – | – |
| Nc1ncnc2c1ncn2OCCOCP(=O)(O)O [Example 2, 9-[2-(Phosphonemethoxy)ethoxy]adenine] | – | – | – | – | 3 µg/mL (≈ 10.4 µM) | 80 µg/mL (≈ 277 µM) | > 100 µg/mL | 69 µg/mL (≈ 239 µM) |
| CCOP(=O)(COCCOn1cnc2c(=O)[nH]c(N)nc21)OCC [Example 3, 9-[2-(Diethoxyphosphorylmethoxy)ethoxy]guanine] | 10 µg/mL (≈ 27.7 µM) | 51 µg/mL (≈ 141 µM) | > 100 µg/mL | > 100 µg/mL | – | – | – | – |
| Nc1nc2c(ncn2OCCOCP(=O)(O)O)c(=O)[nH]1 [Example 4, 9-[2-(Phosphonomethoxy)ethoxy]guanine] | – | – | – | – | < 0.003 µg/mL | 0.06 µg/mL (≈ 0.197 µM) | 1.1 µg/mL (≈ 3.6 µM) | 0.08 µg/mL (≈ 0.262 µM) |
| CCOP(=O)(O)COCCOn1cnc2c(=O)[nH]c(N)nc21 [Example 5, 9-[2-[Ethoxy(hydroxy)phosphorylmethoxy)ethoxy]guanine] | – | < 3 µg/mL | 59 µg/mL (≈ 177 µM) | – | – | – | – | – |
| Nc1ncnc2c1ncn2OCC(CO)OCP(=O)(O)O (centres unmarked) [Example 7, 9-[3-Hydroxy-2-(phosphonomethoxy)propoxy]adenine] | – | – | – | – | 0.3 µg/mL (≈ 0.94 µM) | 66 µg/mL (≈ 207 µM) | > 100 µg/mL | > 100 µg/mL |
| CCOP(=O)(O)COC(CO)COn1cnc2c(N)ncnc21 (centres unmarked) [Example 8, 9-[2-[ethoxy(hydroxy)phosphorylmethoxy]-3-hydroxypropoxy]adenine] | 1 µg/mL (≈ 2.88 µM) | 60 µg/mL (≈ 173 µM) | > 100 µg/mL | > 100 µg/mL | – | – | – | – |
| Nc1nc2c(ncn2OCC(CO)OCP(=O)(O)O)c(=O)[nH]1 (centres unmarked) [Example 10, 9-[3-Hydroxy-2-(phosphonomethoxy)propoxy]guanine] | – | – | – | – | < 0.003 µg/mL | 21 µg/mL (≈ 62.6 µM) | 17 µg/mL (≈ 50.7 µM) | 7.3 µg/mL (≈ 21.8 µM) |
| CCOP(=O)(COCCOn1cnc2c(N)nc(N)nc21)OCC [Example 11, 2,6-Diamino-9-[2-(diethoxyphosphorylmethoxy)ethoxy]purine] | 30 µg/mL (≈ 83.3 µM) | > 100 µg/mL | > 100 µg/mL | – | – | – | – | – |
| Nc1nc(N)c2ncn(OCCOCP(=O)(O)O)c2n1 [Example 12, 2,6-Diamino-9-[2-phosphonomethoxy)ethoxy]purine] | – | – | – | – | 0.3 µg/mL (≈ 0.986 µM) | < 3 µg/mL | 24 µg/mL (≈ 78.9 µM) | – |
| Nc1nc(Cl)c2ncn(OCCOCP(=O)(O)O)c2n1 [Example 13, 2-Amino-6-chloro-9-[2-(phosphonomethoxy)ethoxy]purine] | – | – | – | – | < 0.03 µg/mL | 0.5 µg/mL (≈ 1.54 µM) | 3.7 µg/mL (≈ 11.4 µM) | – |
| COc1nc(N)nc2c1ncn2OCCOCP(=O)(O)O [Example 14, 2-Amino-6-methoxy-9-[2-(phosphonomethoxy)ethoxy]purine] | – | – | – | – | < 0.03 µg/mL | < 0.03 µg/mL | < 3 µg/mL | – |
| Nc1nc2c(ncn2OCC2COP(=O)(O)CO2)c(=O)[nH]1 (centres unmarked) [Example 15, 9-[(2-Hydroxy-2-oxo-1,4,2-dioxaphosphorinan-5-yl)methoxy]guanine] | – | – | – | – | – | < 3 µg/mL | 29 µg/mL (≈ 91.4 µM) | – |

From patent EP0319228A2, “Novel compounds” (BEECHAM GROUP PLC, priority 1987, dated 1989)
